The source of these data is article PMC12569736 (Journal of Cosmetic Dermatology, 2025).

The target in data set [1] is T1, human tyrosinase (hTYR) (Homo sapiens, UniProt P14679).
T1 construct: tyrosinase enzyme solution derived from MNT‐1 cells; endogenous in cells; host or cells: MNT-1 human melanoma cell line (crude lysate supernatant)
T1 sequence (P14679 19-529): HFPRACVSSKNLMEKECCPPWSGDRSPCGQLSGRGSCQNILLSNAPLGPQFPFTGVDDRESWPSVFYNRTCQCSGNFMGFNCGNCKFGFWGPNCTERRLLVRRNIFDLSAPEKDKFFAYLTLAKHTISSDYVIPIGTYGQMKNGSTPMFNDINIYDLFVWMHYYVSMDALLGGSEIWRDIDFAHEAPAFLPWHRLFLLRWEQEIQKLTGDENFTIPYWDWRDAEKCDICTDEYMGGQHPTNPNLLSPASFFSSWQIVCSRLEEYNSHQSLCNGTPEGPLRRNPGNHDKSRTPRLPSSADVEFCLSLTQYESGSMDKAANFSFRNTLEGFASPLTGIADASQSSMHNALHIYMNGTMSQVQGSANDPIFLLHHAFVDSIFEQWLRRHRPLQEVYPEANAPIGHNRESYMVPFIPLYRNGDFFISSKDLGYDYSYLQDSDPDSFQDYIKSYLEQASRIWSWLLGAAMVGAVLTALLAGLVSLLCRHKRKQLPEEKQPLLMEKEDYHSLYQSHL
As to the kind of experiment: L‐DOPA oxidation assay for tyrosinase activity (MNT‐1 cell lysate). The data set is classed as biochemical. Particulars: for inhibitory effect on hTYR at maximum tested concentration: up to 33.3 μM; for IC50: MNT‐1 lysate, L‐DOPA 4 mM, pH 6.9, read-out: IC50 against hTYR; for inhibition at 0.4 µM: read-out: inhibitory activity against hTYR compared to the control. The method, then:
The hTYR‐mediated L‐DOPA oxidation assay was performed according to Winder and Harris. MNT‐1 cells were resuspended in 0.05 M sodium phosphate buffer (pH 6.9) and sonicated for 1 min. After incubation on ice for 3–5 min, the mixture underwent a second sonication. The lysate was centrifuged at 13 000 rpm for 15 min at 4°C, and the supernatant was collected and kept on ice.
For the assay, 20 μL of crude enzyme solution and 80 μL sodium phosphate buffer were added to a 96‐well plate and centrifuged at 1000 rpm for 30 s. Subsequently, 2 μL of different concentrations of test compounds were added to each well, followed by centrifugation at 1000 rpm for 30 s. Finally, 100 μL L‐DOPA (final concentration 4 mM) was added to initiate the reaction. The microplate reader (Synergy H1 Hybrid Reader, BioTek) was used to monitor the reaction at 26°C, measuring absorbance at 475 nm every minute for 60 min. IC50 values were calculated using GraphPad software based on Vmax values from the kinetic curves.
The L‐DOPA tyrosinase assay was performed using a tyrosinase enzyme solution derived from MNT‐1 cells in 50 mM sodium phosphate buffer (pH 6.9), with a substrate (L‐DOPA) concentration of 4 mM and various concentrations of inhibitors as indicated. Data represent mean ± standard deviation of three independent experiments.

The test system of data set [2] is NRF2/ARE signaling pathway. As to the kind of experiment: NRF2/ARE‐luciferase reporter assay in HEK293T cells. The data set is classed as cell-based, human. Particulars: 10 µM, 48 h, relative to DMSO. The protocol:
The NRF2‐responsive firefly luciferase reporter plasmid (pGL4.27_ARE NRF2‐SPE) and Renilla luciferase control plasmid (pRL‐TK) were co‐transfected into HEK293T cells using Lipofectamine 2000. After 24 h, transfected cells were seeded into 96‐well plates and incubated overnight. Test compounds (10 μM) were added, and cells were incubated for an additional 48 h. Luciferase activities were measured using the Dual‐Lumi Luciferase Reporter Assay Kit (Beyotime Biotechnology), following the manufacturer's instructions.
FIGURE 6 KT‐939 activates the ARE/NRF2 signaling pathway. HEK293T cells transfected with an NRF2‐responsive firefly luciferase reporter were treated with 10 µM of KT‐939, hydroquinone (Hq), 377, or 4‐butylresorcinol for 48 h. Luminescence signals were normalized to renilla and expressed relative to DMSO control. *** p < 0.001 vs DMSO.
Background: In a reporter assay the amount or activity of a reporter protein is the signal.

In data set [3] the target is hTYR enzyme. Details: method as in PMID 29427586. The settings on record: purified hTYR; read-out: IC50 against the hTYR enzyme; cited from earlier work.
Data set [4] concerns MNT‐1 cells. As to the kind of experiment: Melanin content in MNT‐1 cells after 6 days of treatment. The data set is classed as cell-based, human. Particulars: for inhibition of melanin production: 0.37 μM; for inhibition of melanin production / inhibition at 1.1 µM / inhibition at 3.3 µM / inhibition at 10 µM: 6 days; for IC50 / inhibition at 1.1 µM / inhibition at 3.3 µM / inhibition at 10 µM: Homo sapiens; for IC50: 144 h, MNT‐1, 6 days, read-out: IC50 of melanin production; for inhibition at 1.1 µM / inhibition at 3.3 µM / inhibition at 10 µM: MNT-1, 144 h, read-out: inhibition of melanin production. The protocol:
MNT‐1 cells were exposed to varying concentrations of test compounds for 6 days. After treatment, cells were harvested and lysed in RIPA buffer on ice for 20 min. Lysates were centrifuged at 13 000 rpm for 10 min at 4°C, and the supernatant was collected. Protein concentration was quantified using a BCA Protein Assay Kit (Thermo Fisher). To extract melanin, cell pellets were dissolved in 1 M NaOH and incubated for 3 h at 80°C. Absorbance at 405 nm was measured using a Synergy H1 Hybrid Reader. Melanin content was quantified by referencing a standard curve of synthetic melanin (maximum concentration 50 μg/mL, 2‐fold gradient dilution, 8 concentration points). Melanin content was normalized to protein concentration (μg melanin/mg protein), and IC50 values were calculated using GraphPad software.
FIGURE 3 Inhibition of melanin production in MNT‐1 by KT‐939, Thiamidol, and 4‐butylresorcinol. MNT‐1 cells were treated with different concentrations of KT‐939, Thiamidol, or 4‐butylresorcinol for 6 days. The melanin content was quantified based on the standard curve of melanin, and the melanin content per mg of protein was utilized for IC50 calculations with GraphPad software.

Data set [5] deals with MelanoDerm skin model. Details: method as in PMID 29427586. Particulars: cited from earlier work.
Data set [6] deals with melasma. Details: method as in PMID 34676600. Particulars: moderate‐to‐severe melasma, 24 weeks of application, cited from earlier work.

Each structure is given as a SMILES string.

With `CC1(C)C=Cc2c(ccc3c2OC[C@@H](c2ccc(O)cc2O)C3)O1` [glabridin], the “inhibitory effect on hTYR at maximum tested concentration” value (shortened to “inhibitory effect on hTYR”) in data set [1] is on record as “no significant inhibitory effects”.
In the case of `Oc1ccc(O)cc1` [hydroquinone], the “inhibitory effect on hTYR” value in data set [1] is reported as “no significant inhibitory effects”. Besides, the “NRF2 signaling pathway activation (luciferase reporter)” value (from here on “NRF2 signaling pathway activation”) in data set [2] was “no effect on NRF2 activation”.
What is called IC50 is the point on the concentration scale where inhibition reaches its midpoint. In the case of `CC(c1ccccc1)c1ccc(O)cc1O` (centres unmarked) [compound 377, phenethyl resorcinol], the IC50 in data set [1] worked out at 21.3 µM. In addition, the “inhibitory activity against hTYR compared to the control” value in data set [1] (at 0.4 μM) was determined as 2.7%. Moreover, in data set [2], the “NRF2 signaling pathway activation” value is recorded as “no effect on NRF2 activation”.
With `OC[C@H]1O[C@@H](Oc2ccc(O)cc2)[C@H](O)[C@@H](O)[C@@H]1O` [arbutin], the “inhibitory effect on hTYR” value in data set [1] was “no significant inhibitory effects”.
Turning to `CC(C)C(=O)Nc1nc(-c2ccc(O)cc2O)cs1` [Thiamidol, isobutylamido thiazolyl resorcinol], the IC50 in data set [3] was 1.1 µM. Besides, in data set [4], the “inhibition of melanin production” value is “neither Thiamidol nor 4‐butylresorcinol showed inhibitory activity”, the IC50 is 1.3 µM, the inhibition at 1.1 µM was found to be 27.2% and the inhibition at 3.3 µM was determined as 62.2%. In data set [4], the inhibition at 10 µM was determined as 76.5%. Moreover, in data set [1], the IC50 amounted to 0.33 µM. In data set [1] (at 0.4 μM), the inhibition at 0.4 µM was found to be 53.5%. Also, the IC50 in data set [5] is 0.9 µM. Further, in data set [6], the tolerability result is reported as “favorable tolerability”. Moreover, the “melasma severity compared to baseline and vehicle” value in data set [6] (Fitzpatrick phototypes III–V) is “significantly reduced melasma severity”.
`CCCCc1ccc(O)cc1O` [4‐butylresorcinol]: in data set [4], the “inhibition of melanin production” value is recorded as “neither Thiamidol nor 4‐butylresorcinol showed inhibitory activity”, the half-inhibitory concentration (IC50) was determined as 8 µM, the inhibition at 1.1 µM was determined as 15.8% and the inhibition at 3.3 µM came out at 32.6%. In data set [4], the inhibition at 10 µM worked out at 48.4%. In data set [1], the half-maximal inhibitory concentration (IC50) amounted to 7.09 µM. Further, the inhibition at 0.4 µM in data set [1] (at 0.4 μM) was determined as 9.7%. For the same molecule, the “NRF2 signaling pathway activation” value in data set [2] is “no effect on NRF2 activation”.
For the molecule `NC(=O)c1cccnc1` [nicotinamide], in data set [1], the “inhibitory effect on hTYR” value is given as “no significant inhibitory effects”.
On to `Oc1ccc(/C=C/c2cc(O)cc(O)c2)cc1` [resveratrol], for which the half-maximal inhibitory concentration (IC50) in data set [1] is 6.04 µM. In addition, the inhibition at 0.4 µM in data set [1] (at 0.4 μM) amounted to 13.4%.
